SMILES strings stand for the structures. Read-outs that look alike come from different tables or passages of the source.

From patent US6716853B2, “Cyclic N-substituted alpha-imino carboxylic acids for selective inhibition of collogenase” (Aventis Pharma Deutschland GmbH, priority 2002, dated 2004) come the findings set out here.

What all share (type): biochemical
In assay [1] the target is T1, human stromelysin (MMP-3) catalytic domain (Homo sapiens, UniProt P08254).
T1 construct: catalytic domain of human stromelysin (MMP 3); made in house
T1 sequence (P08254 100-272 limits assumed): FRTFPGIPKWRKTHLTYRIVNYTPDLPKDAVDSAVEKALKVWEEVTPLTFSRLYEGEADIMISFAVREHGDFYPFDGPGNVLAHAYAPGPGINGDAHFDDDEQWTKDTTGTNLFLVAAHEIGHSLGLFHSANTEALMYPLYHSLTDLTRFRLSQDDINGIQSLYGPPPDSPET
Description: Enzymatic activity of the catalytic domain of human stromelysin (MMP 3), fluorogenic substrate. The settings on record: Table 2; pH 7.5. How it is done:
(§1) Preparation and determination of the enzymatic activity of the catalytic domain of human stromelysin (MMP 3) and neutrophil collagenase (MMP8).
(§2) The two enzymes—stromelysin (MMP-3) and neutrophil collagenase (MMP-8)—were prepared as described by Ye et al. (Biochemistry; 31 (1992) pages 11231-11235). To measure the enzymic activity or the enzyme inhibitory effect, 70 μl of buffer solution and 10 μl of enzyme solution are incubated at physiological pH with 10 μl of a 10% strength (v/v) aqueous dimethyl sulfoxide solution which optionally contains the enzyme inhibitor for 15 minutes. After addition of 10 μl of a 10% strength (v/v) aqueous dimethyl sulfoxide solution which contains 1 mmol/l of the substrate, the enzymic reaction is followed by fluorescence spectroscopy (328 nm (ex)/393 nm(em)).
(§3) The enzymic activity is represented as increase in extinction/minute. The IC50 values listed in table 2 are measured as the inhibitor concentrations leading in each case to 50% inhibition of the enzyme.
(§4) The buffer solution contains 0.05% Brij (Sigma, Deisenhofen, Germany) and 0.1 mol/l Tris/HCl, 0.1 mol/l NaCl, 0.01 mol/l CaCl2 and 0.1 mol/l piperazine-N,N′-bis[2-ethanesulfonic acid] (pH=7.5).
(§5) The enzyme solution contains 5 μg/ml of one of the enzyme domains prepared as described by Ye et al. The substrate solution contains 1 mmol/l of the fluorogenic substrate (7-methoxycoumarin-4-yl)acetyl-Pro-Leu-Gly-Leu-3-(2,4-dinitrophenyl)-L-2,3-diaminopropionyl-Ala-Arg-NH2 (Bachem, Heidelberg, Germany).

Assay [2] concerns the target T2, human neutrophil collagenase (MMP-8) catalytic domain (Homo sapiens, UniProt P22894).
T2 construct: catalytic domain of human stromelysin (MMP 3) and neutrophil collagenase (MMP8); made in house
The assay is described as follows: Enzymatic activity of the catalytic domain of human neutrophil collagenase (MMP 8), fluorogenic substrate. The conditions noted are these: Table 2; pH 7.5. As for the experimental part: as §1, §2, §3, §4, §5

Assay [3] deals with T3, human collagenase 3 (MMP-13) catalytic domain (Homo sapiens, UniProt P45452).
T3 construct: catalytic domain of human collagenase 3 (MMP-13); purchased INVITEK, Berlin 30 100 803
The assay is described as follows: Enzymatic activity of the catalytic domain of human collagenase 3 (MMP-13), fluorogenic substrate. How it is done: Determination of the enzymatic activity of the catalytic domain of human collagenase 3 (MMP-13).
Activation of the proenzyme:
2 parts by volume of proenzyme are incubated with 1 part by volume of APMA solution at 37° C. for 1.5 hours. The APMA solution is prepared from a 10 mmol/L
p-aminophenylmercuric acetate solution in […] by dilution with 3 parts by volume of Tris/HCl buffer pH7.5 (see below). The pH is adjusted to between 7.0 and 7.5 by adding 1 mmol/L HCl. After activation of the enzyme it is diluted with the Tris/HCl buffer to a concentration of 1.67 μg/mL.
To measure the enzymic activity, 10 μL of enzyme solution are incubated with 10 μL of a 3% strength (v/v) buffered dimethyl sulfoxide solution (reaction 1) for 15 minutes. To measure the enzyme inhibitory activity, 10 μL of enzyme solution are incubated with 10 μL of a 3% strength (v/v) buffered dimethyl sulfoxide solution which contains the enzyme inhibitor (reaction 2).
The enzymic reaction both in reaction 1 and in reaction 2 is followed, after addition of 10 μL of a 3% strength (v/v) aqueous dimethyl sulfoxide solution which contains 0.75 mmol/L of the substrate, by fluorescence spectroscopy (328 nm (extinction)/393 nm(emission)).
The enzymic activity is represented as increase in extinction/minute.
The inhibitory effect is calculated as percentage inhibition by the following formula:
% inhibition=100−[(increase in extinction/minute in reaction 2)/(increase in extinction/minute in reaction 1)×100].
The IC50, i.e. the inhibitor concentration necessary for 50% inhibition of enzymic activity, is found by plotting a graph of the percentage inhibitions at various inhibitor concentrations.
The buffer solution contains 0.05% Brij (Sigma, Deisenhofen, Germany) and 0.1 mol/L Tris/HCl, 0.1 mol/L NaCl, 0.01 mol/L CaCl2 (pH=7.5).
The enzyme solution contains 1.67 μg/mL of the enzyme domain.
The substrate solution contains 0.75 mmol/L of the fluorogenic substrate (7-methoxycoumarin-4-yl)acetyl-Pro-Leu-Gly-Leu-3-(2,4-dinitrophenyl)-L-2,3-diaminopropionyl-Ala-Arg-NH2 (Bachem, Heidelberg, Germany).

Setting [4] is: Table 2, pH 7.5, read-out: MMP 13 IC50.
Setting [5] is: Table 3, comparative examples, determination as described above, read-out: MMP 13.

T2 sequence (P22894 100-262 limits assumed): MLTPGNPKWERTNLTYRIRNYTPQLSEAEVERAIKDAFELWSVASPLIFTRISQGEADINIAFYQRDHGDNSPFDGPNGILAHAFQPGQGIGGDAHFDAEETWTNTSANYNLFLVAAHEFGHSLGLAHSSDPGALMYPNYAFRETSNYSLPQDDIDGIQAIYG

Regarding `Cn1cnc2c1C[C@H](C(=O)O)N(S(=O)(=O)c1ccc(-c3ccc(NC(=O)OCC(C)(C)C)cc3)cc1)C2` [Example 8], the IC50 in assay [1] was above 10000 nM; in assay [2] it was 5000 nM; in assay [3] (setting [4]), 70 nM.

As for `CN(C)c1ccc(-c2ccc(S(=O)(=O)N3Cc4ccccc4C[C@@H]3C(=O)O)cc2)cc1` [Example 39, reference compound], in assay [3] (setting [5]), the IC50 is 2.9 nM.

For `Cn1cnc2c1C[C@H](C(=O)O)N(S(=O)(=O)c1ccc(-c3ccc(NC(=O)OCC4CC4)cc3)cc1)C2` [Example 10], the IC50 in assay [1] is above 10000 nM; in assay [2], 700 nM; in assay [3] (setting [4]) it was 20 nM.

In the case of `O=C(O)[C@H]1Cc2ccccc2CN1S(=O)(=O)c1ccc(-c2ccc(Cl)cc2)cc1` [Example 35, reference compound], in assay [3] (setting [5]), the IC50 was 30 nM.

In the case of `CCCCCCOC(=O)Nc1ccc(-c2ccc(S(=O)(=O)N3Cc4ccccc4C[C@@H]3C(=O)O)cc2)cc1` [Example 3], the IC50 in assay [1] is above 10000 nM; in assay [2], 2000 nM; in assay [3] (setting [4]) it was 70 nM.

In the case of `CC(C)COC(=O)Nc1ccc(-c2ccc(S(=O)(=O)N3Cc4ncn(C)c4C[C@@H]3C(=O)O)cc2)cc1` [Example 9], the IC50 in assay [2] stood at 200 nM; in assay [3] (setting [4]), 60 nM.

For the compound `CC(C)COC(=O)Nc1ccc(-c2ccc(S(=O)(=O)N3Cc4ccccc4C[C@@H]3C(=O)O)cc2)cc1` [Example 4], the IC50 in assay [1] is 2000 nM; in assay [2], 3000 nM; in assay [3] (setting [4]) it was 20 nM.

For the compound `CCOC(=O)Nc1ccc(-c2ccc(S(=O)(=O)N3Cc4ccccc4C[C@@H]3C(=O)O)cc2)cc1` [Example 1], the IC50 is 3000 nM in assay [1], 2300 nM in assay [2] and 40 nM in assay [3] (setting [4]).

Take `CC(C)OC(=O)Nc1ccc(-c2ccc(S(=O)(=O)N3Cc4ccccc4C[C@@H]3C(=O)O)cc2)cc1` [Example 2, 2-(4′-Isopropoxycarbonylaminobiphenyl-4-sulfonyl)-1,2,3,4-tetrahydroisocquinoline-3-(R)-carboxylic acid]: the results for the IC50 in assay [1], in assay [2] and in assay [3] (setting [4]) were 3000 nM, 6000 nM and 30 nM, respectively.

On to `O=C(O)[C@H]1Cc2ccccc2CN1S(=O)(=O)c1ccc(-c2ccccc2)cc1` [Example 34, reference compound], for which the IC50 in assay [3] (setting [5]) was determined as 50 nM.

In the case of `O=C(Nc1ccc(-c2ccc(S(=O)(=O)N3Cc4ccccc4C[C@@H]3C(=O)O)cc2)cc1)OCC1CC1` [Example 5], the IC50 in assay [1] was 3000 nM; in assay [2], 4000 nM; in assay [3] (setting [4]) it was 20 nM.

On to `Cn1cnc2c1C[C@H](C(=O)O)N(S(=O)(=O)c1ccc(-c3ccc(NC(=O)OCc4ccccc4)cc3)cc1)C2` [Example 7], for which the IC50 is above 10000 nM in assay [1], 1000 nM in assay [2] and 60 nM in assay [3] (setting [4]).

As for `CC(C)OC(=O)Nc1ccc(-c2ccc(S(=O)(=O)N3Cc4ncn(C)c4C[C@@H]3C(=O)O)cc2)cc1` [Example 6], the IC50 turned out to be 4000 nM in assay [2] and 80 nM in assay [3] (setting [4]).
